In the supplement of paper PMC11061612:

Assays:
Experiment in all cases: Bliss excess, mean over the matrix (fraction); higher = more synergy
[1] = tested on: KYSE-520 (Esophageal Squamous Cell Carcinoma)
Summary of the method: (§1)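 Cell lines grown in DMEM/F12 or RPMI with 10% FBS were plated in 1536-well plates and held 24 hours at 37°C, 5% CO2 before 72 hours of exposure to two-drug dose matrices, with DMSO typically at 0.2%. CellTiter-Glo 2.0 luminescence gave viability, which was converted to inhibition. Vehicle wells were set to 0 and blank wells to 1. Combination Emax is the second-highest inhibition in the matrix, and Bliss excess is the observed combination effect minus the expected EA + EB − EA·EB, where EA and EB are the single-agent effects.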

[2] = tested on: MFE-296 (Endometrial Carcinoma)
Summary of the method: as §1

[3] = tested on: HT-1376 (Bladder Carcinoma)
Summary of the method: as §1

[4] = tested on: HCC1806 (Breast Carcinoma)
Summary of the method: as §1

[5] = tested on: Daoy (Other Solid Carcinomas)
Summary of the method: as §1

[6] = tested on: LNCaP-Clone-FGC (Prostate Carcinoma)
Summary of the method: as §1

[7] = tested on: OVCA420 (Ovarian Carcinoma)
Summary of the method: as §1

[8] = tested on: CAL-148 (Breast Carcinoma)
Summary of the method: as §1

[9] = tested on: HuP-T4 (Pancreatic Carcinoma)
Summary of the method: as §1

[10] = tested on: KURAMOCHI (Ovarian Carcinoma)
Summary of the method: as §1

[11] = tested on: Hs-578-T (Breast Carcinoma)
Summary of the method: as §1

[12] = tested on: CaR-1 (Colorectal Carcinoma)
Summary of the method: as §1

[13] = tested on: KP-1N (Pancreatic Carcinoma)
Summary of the method: as §1

[14] = tested on: B-CPAP (Thyroid Gland Carcinoma)
Summary of the method: as §1

KELLY (Neuroblastoma) = tested on: KELLY (Neuroblastoma)
Summary of the method: as §1

[15] = tested on: Calu-3 (Lung Adenocarcinoma)
Summary of the method: as §1

[16] = tested on: MDA-MB-361 (Breast Carcinoma)
Summary of the method: as §1

[17] = tested on: LS-180 (Colorectal Carcinoma)
Summary of the method: as §1

[18] = tested on: LB831-BLC (Bladder Carcinoma)
Summary of the method: as §1

NB10 (Neuroblastoma) = tested on: NB10 (Neuroblastoma)
Summary of the method: as §1

SMILES	Bliss excess [1]	Bliss excess [2]	Bliss excess [3]	Bliss excess [4]	Bliss excess [5]	Bliss excess [6]	Bliss excess [7]	Bliss excess [8]	Bliss excess [9]	Bliss excess [10]	Bliss excess [11]	Bliss excess [12]	Bliss excess [13]	Bliss excess [14]	Bliss excess (KELLY (Neuroblastoma))	Bliss excess [15]	Bliss excess [16]	Bliss excess [17]	Bliss excess [18]	Bliss excess (NB10 (Neuroblastoma))
CC1(C)CCC(CN2CCN(c3ccc(C(=O)NS(=O)(=O)c4ccc(NCC5CCOCC5)c([N+](=O)[O-])c4)c(Oc4cnc5[nH]ccc5c4)c3)CC2)=C(c2ccc(Cl)cc2)C1 [Venetoclax] + Cc1cc2ncnn2cc1Nc1ncc2c(n1)n(C1CCOCC1)c(=O)n2C [AZD7648] (first compound max 1 µM, 7x7, partner max 10 µM)	-0.0284	-0.0065	-0.0226	0.0043	-0.0129	-0.0963	-0.0089	-0.0143	-0.0151	-0.0605	-0.0162	-0.048	-0.0217	-0.0146	-0.0064	0.0113	0.0398	-0.0061	-0.0497	0.0053
CC(=O)Nc1cccc(-n2c(=O)n(C3CC3)c(=O)c3c(Nc4ccc(I)cc4F)n(C)c(=O)c(C)c32)c1 [Trametinib] + Cc1nc(-c2cn3c(n2)-c2ccc(-c4cnn(C(C)(C)C(N)=O)c4)cc2OCC3)n(C(C)C)n1 [Taselisib] (first compound max 1 µM, 7x7, partner max 10 µM)	0.0534	0.0323	0.0546	0.257	0.0146	-0.0056	0.0806	0.0554	0.241	0.115	0.0773	0.0783	0.101	0.141	0.132	0.162	0.0263	0.0957	0.0977	0.118
Cn1cnc2c(F)c(Nc3ccc(Br)cc3Cl)c(C(=O)NOCCO)cc21 [Selumetinib] + CCN(CCO)CCCOc1ccc2c(Nc3cc(CC(=O)Nc4cccc(F)c4)[nH]n3)ncnc2c1 [AZD2811] (first compound max 10 µM, 7x7, partner max 1 µM)	0.0547	-0.0309	-0.0488	-0.0063	0.012	0.0253	0.0471	-0.029	-0.0161	-0.0203	0.0203	0.0301	-0.0461	0.001	-0.0709	-0.0353	-0.004	-0.0541	-0.0385	-0.0402
Cc1c2c(nn1C)CSCc1cc(n(C)n1)CSc1cc(c3ccccc3c1)OCCCc1c(C(=O)O)n(C)c3c-2c(Cl)ccc13 [AZD5991] + C=CCn1c(=O)c2cnc(Nc3ccc(N4CCN(C)CC4)cc3)nc2n1-c1cccc(C(C)(C)O)n1 [AZD1775] (first compound max 1 µM, partner max 1 µM)	0.0434	-0.0025	0.0345	0.0493	0.0375	0.0118	-0.0002	0.0567	-0.0039	-0.0346	-0.0244	-0.0103	-0.0696	-0.053	0.0322	0.0194	-0.052	0.0495	-0.0044	-0.0441
CN(CCO)CC[C@H](CSc1ccccc1)Nc1ccc(S(=O)(=O)NC(=O)c2ccc(N3CCC([C@@H](O)c4ccccc4-c4ccc(Cl)cc4)CC3)cc2)cc1S(=O)(=O)C(F)(F)F [AZD4320] + CCN(CCO)CCCOc1ccc2c(Nc3cc(CC(=O)Nc4cccc(F)c4)[nH]n3)ncnc2c1 [AZD2811] (first compound max 1 µM, 7x7, partner max 1 µM)	-0.0505	-0.0109	0.026	-0.0127	0.0245	-0.0105	-0.0352	-0.0027	-0.0427	0.0224	0.183	-0.0753	-0.0317	0.0126	0.051	-0.0142	0.122	-0.0044	0.0234	-0.0097
Cc1nc(Nc2ncc(C(=O)Nc3c(C)cccc3Cl)s2)cc(N2CCN(CCO)CC2)n1 [Dasatinib] + CC(=O)Nc1cccc(-n2c(=O)n(C3CC3)c(=O)c3c(Nc4ccc(I)cc4F)n(C)c(=O)c(C)c32)c1 [Trametinib] (first compound max 2 µM, 7x7, partner max 1 µM)	-0.0902	-0.0328	0.0158	-0.0461	0.0053	-0.0361	0.025	-0.0252	0.0075	0.0706	-0.0526	-0.0711	0.0493	-0.0158	0.0824	0.0074	-0.0072	0.0883	-0.0529	-0.0024
Cn1cnc2c(F)c(Nc3ccc(Br)cc3Cl)c(C(=O)NOCCO)cc21 [Selumetinib] + C=CCn1c(=O)c2cnc(Nc3ccc(N4CCN(C)CC4)cc3)nc2n1-c1cccc(C(C)(C)O)n1 [AZD1775] (first compound max 10 µM, partner max 1 µM)	0.0054	-0.059	-0.0093	0.0042	-0.0443	-0.15	-0.0093	-0.0543	0.0161	0.0427	-0.0423	-0.0218	-0.0298	-0.0704	-0.0658	-0.0405	-0.053	-0.0585	-0.08	-0.0125
C=CCn1c(=O)c2cnc(Nc3ccc(N4CCN(C)CC4)cc3)nc2n1-c1cccc(C(C)(C)O)n1 [AZD1775] + C[C@@H]1COCCN1C2=NC(=NC(=C2)C3(CC3)[S@](=N)(=O)C)C4=C5C=CNC5=NC=C4 [AZD6738] (first compound max 1 µM, partner max 10 µM)	-0.003	0.0428	-0.0483	0.0166	0.0863	-0.0387	0.0441	-0.034	0.0849	-0.0355	-0.0127	0.0177	0.0055	0.0499	-0.0161	-0.0181	-0.0113	-0.0098	0.0042	0.0822
Cc1cc2ncnn2cc1Nc1ncc2c(n1)n(C1CCOCC1)c(=O)n2C [AZD7648] + CN(C)CCCOc1ccc(-c2ccc3ncc4c(c3c2)n(C2CCOCC2)c(=O)n4C)cn1 [AZD0156] (first compound max 10 µM, 7x7, partner max 1 µM)	-0.0068	0.0042	0.0037	0.0654	0.0614	0.0016	0.019	0.0102	0.0393	-0.064	-0.088	0.0399	-0.0058	-0.0206	0.0637	-0.0252	-0.0656	-0.0443	-0.0154	-0.0024
CC(=O)c1c(C)c2cnc(Nc3ccc(N4CCNCC4)cn3)nc2n(C2CCCC2)c1=O [Palbociclib] + CC1(C)CCC(CN2CCN(c3ccc(C(=O)NS(=O)(=O)c4ccc(NCC5CCOCC5)c([N+](=O)[O-])c4)c(Oc4cnc5[nH]ccc5c4)c3)CC2)=C(c2ccc(Cl)cc2)C1 [Venetoclax] (first compound max 10 µM, 7x7, partner max 1 µM)	-0.0442	-0.0262	-0.0453	-0.0213	0.005	0.0267	-0.0468	-0.0161	-0.0281	-0.0418	-0.0447	-0.0507	-0.0396	0.0002	0.0358	-0.0252	-0.0751	-0.0124	-0.0523	0.0062
NC1(C(=O)N[C@@H](CCO)c2ccc(Cl)cc2)CCN(c2ncnc3[nH]ccc23)CC1 [Capivasertib] + Cn1cnc2c(F)c(Nc3ccc(Br)cc3Cl)c(C(=O)NOCCO)cc21 [Selumetinib] (first compound max 10 µM, 7x7, partner max 10 µM)	-0.042	-0.0133	-0.0149	0.0578	0.0225	-0.0143	0.0639	0.0597	0.028	0.0079	-0.0194	0.0076	0.0357	0.0496	0.0266	0.0295	0.0297	-0.0247	-0.133	0.037
COc1cccc(OCCCN)c1-c1cc(Nc2cnc(C#N)cn2)n[nH]1 [Prexasertib] + CCc1c2c(nc3ccc(O)cc13)-c1cc3c(c(=O)n1C2)COC(=O)[C@]3(O)CC [SN-38] (first compound max 1 µM, 7x7, partner max 0.3 µM)	0.048	0.0106	-0.0265	-0.001	0.0128	-0.0782	0.0326	-0.0388	-0.0424	0.0311	0.0856	-0.053	0	0.0695	-0.0098	-0.0003	-0.0298	-0.0629	0.0581	-0.0986
Cc1cc2ncnn2cc1Nc1ncc2c(n1)n(C1CCOCC1)c(=O)n2C [AZD7648] + C[C@@H]1COCCN1C2=NC(=NC(=C2)C3(CC3)[S@](=N)(=O)C)C4=C5C=CNC5=NC=C4 [AZD6738] (first compound max 10 µM, 7x7, partner max 10 µM)	0.0356	0.0193	0.0176	0.014	0.0328	-0.0069	0.0074	0.0532	0.0353	-0.0229	-0.0744	0.0287	-0.0035	-0.0649	0.0663	0.0012	-0.0263	0.0003	0.0485	-0.0306
Cc1c2c(nn1C)CSCc1cc(n(C)n1)CSc1cc(c3ccccc3c1)OCCCc1c(C(=O)O)n(C)c3c-2c(Cl)ccc13 [AZD5991] + C[C@@H](Nc1cc(F)cc(F)c1)c1cc(C(=O)N(C)C)cc2c(=O)cc(N3CCOCC3)oc12 [AZD8186] (first compound max 1 µM, 7x7, partner max 3 µM)	-0.0258	0.0197	-0.0304	0.0026	0.0289	-0.0234	-0.0274	-0.0338	0.0505	0.039	-0.126	-0.0187	-0.0533	-0.0409	0.0259	0.0441	-0.0102	-0.0189	0.0352	-0.0444
